Assay results taken from patent publication US9346813B2, “Substituted pyrrolo[2,3-d]pyrimindines as CDK9 kinase inhibitors” (AbbVie Inc., priority 2014, dated 2016).

Assays:
CDK9/Cyclin T1 = biological target: T1, CDK9/Cyclin T1 (Homo sapiens, UniProt P50750); assay: CDK9 enzyme protocol (LANCE ULight TR-FRET kinase assay); assay type: biochemical; conditions: 4 nM CDK9/Cyclin T1, 1000 μM ATP, 100 nM U-light MBP peptide, 30 minutes
T1 construct: purchased Carna Biosciences 04-110
Procedure: CDK9 enzyme activities were measured using LANCE ULight TR-FRET kinase assay reagents (PerkinElmer, Waltham, Mass.). Compounds were directly added in 100% DMSO to white low volume assay plates (Perkin Elmer Proxiplate 6008289) using a Labcyte Echo acoustic dispenser. Assay reagents in serine/threonine kinase assay buffer containing 20 mM HEPES, 10 mM MgCl2, 100 mM Na3VO4, and 0.0075% Triton X-100. were added for final reaction mixture concentrations of 1000 μM ATP, 100 nM U-light MBP peptide (Perkin Elmer TRF0109M) and reaction initiated with 4 nM CDK9/Cyclin T1 (Carna Biosciences 04-110). The kinase reaction was carried out for 30 minutes before addition of stopping buffer to a final of 20 mM EDTA and 0.5 nM of LANCE Ultra Europium anti-phospho-MBP antibody (PerkinElmer TRF0201M) in LANCE detection buffer (PerkinElmer CR97-100). The reaction was equilibrated for 1 hour and the signal read in the Perkin Elmer Envision in TR-FRET mode (excitation at 320 nm and emission at 615/665 nm).

H929 cells = assay: Cell viability assay in H929 cells (Cell TiterGlo); assay type: cell-based; conditions: Homo sapiens, NCI-H929, 24 hours at 37° C.
Procedure: Cell viability assays were performed using A431 or H929 cells. A431 cells were seeded in 96-well plates at 10,000 cells/well, and after overnight incubation, treated with compounds at 2-times the final concentration to result in a dose response of 3-fold dilutions from 10 μM to 0.0005 μM (50 μL/well, 0.1% final DMSO concentration). H929 cells were seeded in 96-well plates at 10,000 cells/well and treated immediately with compounds as described above. After 24 hours at 37° C., cell viability was measured using Cell TiterGlo reagent (Promega) with a luminescence reader. Alternately, cell viability assays were performed in 384-well format. A431 cells were seeded in 384-well plates at 2500 cells/well and, after overnight incubation, treated with compounds in a dose response of 3-fold dilutions from 10 μM to 0.0005 μM (25 nL/well, 0.1% final DMSO concentration). For the H929 viability assay, 25 nL/well of the compounds was dispensed into 384-well plates in a dose response as described above and cells were immediately seeded in 384-well plates at 2500 cells/well. After 24 hours at 37° C., cell viability was measured using Cell TiterGlo reagent (Promega) with a luminescence reader.

T1 sequence (P50750 whole entry): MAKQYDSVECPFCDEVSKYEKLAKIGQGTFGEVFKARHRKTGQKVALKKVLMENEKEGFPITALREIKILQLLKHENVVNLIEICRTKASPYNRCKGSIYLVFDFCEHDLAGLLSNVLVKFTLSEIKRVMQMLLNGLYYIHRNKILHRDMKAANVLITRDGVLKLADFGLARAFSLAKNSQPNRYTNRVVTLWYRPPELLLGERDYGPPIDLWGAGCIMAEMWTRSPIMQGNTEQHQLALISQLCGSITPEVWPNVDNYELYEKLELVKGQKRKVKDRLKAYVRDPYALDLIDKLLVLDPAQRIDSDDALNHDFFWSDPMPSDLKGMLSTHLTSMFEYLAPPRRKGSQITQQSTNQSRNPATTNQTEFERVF
T1 sequence (O60563 whole entry partner): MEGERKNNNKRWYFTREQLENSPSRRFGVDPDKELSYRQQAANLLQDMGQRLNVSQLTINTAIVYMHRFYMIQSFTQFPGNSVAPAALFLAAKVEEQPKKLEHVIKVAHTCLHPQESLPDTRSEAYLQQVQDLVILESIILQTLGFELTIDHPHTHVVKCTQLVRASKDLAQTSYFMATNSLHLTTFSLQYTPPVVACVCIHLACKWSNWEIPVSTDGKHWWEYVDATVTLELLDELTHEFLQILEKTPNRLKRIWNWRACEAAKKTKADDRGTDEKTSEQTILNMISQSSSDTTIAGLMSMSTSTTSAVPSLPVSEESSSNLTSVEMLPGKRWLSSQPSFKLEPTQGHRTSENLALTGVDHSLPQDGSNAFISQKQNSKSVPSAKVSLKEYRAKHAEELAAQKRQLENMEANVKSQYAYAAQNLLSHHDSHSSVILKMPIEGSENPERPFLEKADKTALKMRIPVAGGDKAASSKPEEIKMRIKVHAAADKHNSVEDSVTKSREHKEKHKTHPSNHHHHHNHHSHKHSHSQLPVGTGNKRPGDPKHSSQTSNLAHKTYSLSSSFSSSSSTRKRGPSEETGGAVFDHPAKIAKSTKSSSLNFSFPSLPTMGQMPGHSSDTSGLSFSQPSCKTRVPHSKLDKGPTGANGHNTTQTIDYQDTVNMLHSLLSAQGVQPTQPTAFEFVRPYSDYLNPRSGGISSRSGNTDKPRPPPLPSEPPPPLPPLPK

`COc1ccc(F)cc1-c1ncnc2[nH]c(C3CCN(C)CC3)cc12` [Example 2, 4-(5-fluoro-2-methoxyphenyl)-6-(1-methylpiperidin-4-yl)-7H-pyrrolo[2,3-d]pyrimidine] gave an IC50 (CDK9/Cyclin T1) of 110 nM.

`COc1ccc(F)cc1-c1ncnc2[nH]c(C3=CCN(C)CC3)cc12` [Example 4, 4-(5-fluoro-2-methoxyphenyl)-6-(1-methyl-1,2,3,6-tetrahydropyridin-4-yl)-7H-pyrrolo[2,3-d]pyrimidine] was tested, and the EC50 (H929 cells) was 350 nM and the IC50 (CDK9/Cyclin T1) was 23 nM.

`COc1ccc(F)cc1-c1ncnc2[nH]c(C3=CCN(S(C)(=O)=O)CC3)cc12` [Example 5, 4-(5-fluoro-2-methoxyphenyl)-6-[1-(methylsulfonyl)-1,2,3,6-tetrahydropyridin-4-yl]-7H-pyrrolo[2,3-d]pyrimidine] showed an EC50 (H929 cells) of 380 nM and an IC50 (CDK9/Cyclin T1) of 20 nM.

For `COc1ccc(F)cc1-c1ncnc2[nH]c(C3=CCN(CC(O)CO)CC3)cc12` (stereo not shown) [Example 20, 3-{4-[4-(5-fluoro-2-methoxyphenyl)-7H-pyrrolo[2,3-d]pyrimidin-6-yl]-3,6-dihydropyridin-1(2H)-yl}propane-1,2-diol], the EC50 (H929 cells) was 380 nM.

With `CS(=O)(=O)N1CC=C(c2cc3c(-c4cc(NCc5ccccn5)ccc4F)ncnc3[nH]2)CC1` [Example 33, 4-fluoro-3-{6-[1-(methylsulfonyl)-1,2,3,6-tetrahydropyridin-4-yl]-7H-pyrrolo[2,3-d]pyrimidin-4-yl}-N-(pyridin-2-ylmethyl)aniline] the IC50 (CDK9/Cyclin T1) was 300 nM.

In the case of `Cc1cc(Cl)cc(-c2ncnc3[nH]c(C4=CCN(S(C)(=O)=O)CC4)cc23)c1F` [Example 41, 4-(5-chloro-2-fluoro-3-methylphenyl)-6-[1-(methylsulfonyl)-1,2,3,6-tetrahydropyridin-4-yl]-7H-pyrrolo[2,3-d]pyrimidine], the IC50 (CDK9/Cyclin T1) is reported as 11700 nM.

In the case of `CCCCOc1ccc(F)cc1-c1ncnc2[nH]c(C3=CCN(S(C)(=O)=O)CC3)cc12` [Example 42, 4-(2-butoxy-5-fluorophenyl)-6-[1-(methylsulfonyl)-1,2,3,6-tetrahydropyridin-4-yl]-7H-pyrrolo[2,3-d]pyrimidine], the IC50 (CDK9/Cyclin T1) is reported as 1200 nM.

For `Cc1ccc(OC(C)C)c(-c2ncnc3[nH]c(C4=CCN(S(C)(=O)=O)CC4)cc23)c1` [Example 43, 4-[5-methyl-2-(propan-2-yloxy)phenyl]-6-[1-(methylsulfonyl)-1,2,3,6-tetrahydropyridin-4-yl]-7H-pyrrolo[2,3-d]pyrimidine], the IC50 (CDK9/Cyclin T1) was > 12500 nM.

For `COc1ccc(C)cc1-c1ncnc2[nH]c(C3=CCN(S(C)(=O)=O)CC3)cc12` [Example 44, 4-(2-methoxy-5-methylphenyl)-6-[1-(methylsulfonyl)-1,2,3,6-tetrahydropyridin-4-yl]-7H-pyrrolo[2,3-d]pyrimidine], the IC50 (CDK9/Cyclin T1) was 610 nM.

`CS(=O)(=O)N1CC=C(c2cc3c(-c4ccc(F)cc4F)ncnc3[nH]2)CC1` [Example 46, 4-(2,4-difluorophenyl)-6-[1-(methylsulfonyl)-1,2,3,6-tetrahydropyridin-4-yl]-7H-pyrrolo[2,3-d]pyrimidine] showed an IC50 (CDK9/Cyclin T1) of 830 nM.

`CS(=O)(=O)N1CC=C(c2cc3c(-c4ccccc4C(F)(F)F)ncnc3[nH]2)CC1` [Example 47, 6-[1-(methylsulfonyl)-1,2,3,6-tetrahydropyridin-4-yl]-4-[2-(trifluoromethyl)phenyl]-7H-pyrrolo[2,3-d]pyrimidine] showed an IC50 (CDK9/Cyclin T1) of 1400 nM.

`CS(=O)(=O)Nc1cccc(-c2ncnc3[nH]c(C4=CCN(S(C)(=O)=O)CC4)cc23)c1` [Example 48, N-(3-{6-[1-(methylsulfonyl)-1,2,3,6-tetrahydropyridin-4-yl]-7H-pyrrolo[2,3-d]pyrimidin-4-yl}phenyl)methanesulfonamide] was tested, and the IC50 (CDK9/Cyclin T1) was 290 nM.

`CCCOc1ccc(F)cc1-c1ncnc2[nH]c(C3=CCN(S(C)(=O)=O)CC3)cc12` [Example 49, 4-(5-fluoro-2-propoxyphenyl)-6-[1-(methylsulfonyl)-1,2,3,6-tetrahydropyridin-4-yl]-7H-pyrrolo[2,3-d]pyrimidine] was tested, and the IC50 (CDK9/Cyclin T1) was 1300 nM.

`Cc1ccc(F)c(-c2ncnc3[nH]c(C4=CCN(S(C)(=O)=O)CC4)cc23)c1` [Example 50, 4-(2-fluoro-5-methylphenyl)-6-[1-(methylsulfonyl)-1,2,3,6-tetrahydropyridin-4-yl]-7H-pyrrolo[2,3-d]pyrimidine] was tested, and the IC50 (CDK9/Cyclin T1) was 1000 nM.

For `CS(=O)(=O)N1CC=C(c2cc3c(-c4cc(C(F)(F)F)ccc4F)ncnc3[nH]2)CC1` [Example 51, 4-[2-fluoro-5-(trifluoromethyl)phenyl]-6-[1-(methylsulfonyl)-1,2,3,6-tetrahydropyridin-4-yl]-7H-pyrrolo[2,3-d]pyrimidine], the IC50 (CDK9/Cyclin T1) was > 12500 nM.

`CC(C)Oc1ccc(F)c(-c2ncnc3[nH]c(C4=CCN(S(C)(=O)=O)CC4)cc23)c1` [Example 52, 4-[2-fluoro-5-(propan-2-yloxy)phenyl]-6-[1-(methylsulfonyl)-1,2,3,6-tetrahydropyridin-4-yl]-7H-pyrrolo[2,3-d]pyrimidine] showed an IC50 (CDK9/Cyclin T1) of 10100 nM.

`CCCOc1ccc(C)cc1-c1ncnc2[nH]c(C3=CCN(S(C)(=O)=O)CC3)cc12` [Example 53, 4-(5-methyl-2-propoxyphenyl)-6-[1-(methylsulfonyl)-1,2,3,6-tetrahydropyridin-4-yl]-7H-pyrrolo[2,3-d]pyrimidine] gave an IC50 (CDK9/Cyclin T1) of 2800 nM.

In the case of `CCCCOc1ccc(F)c(-c2ncnc3[nH]c(C4=CCN(S(C)(=O)=O)CC4)cc23)c1` [Example 54, 4-(5-butoxy-2-fluorophenyl)-6-[1-(methylsulfonyl)-1,2,3,6-tetrahydropyridin-4-yl]-7H-pyrrolo[2,3-d]pyrimidine], the IC50 (CDK9/Cyclin T1) is reported as 4100 nM.

Work on `CS(=O)(=O)N1CC=C(c2cc3c(-c4cccc(OC(F)(F)F)c4)ncnc3[nH]2)CC1` [Example 56, 6-[1-(methylsulfonyl)-1,2,3,6-tetrahydropyridin-4-yl]-4-[3-(trifluoromethoxy)phenyl]-7H-pyrrolo[2,3-d]pyrimidine] yielded an IC50 (CDK9/Cyclin T1) of 1600 nM.

In the case of `Cn1cc(-c2ncnc3[nH]c(C4=CCN(S(C)(=O)=O)CC4)cc23)cn1` [Example 57, 4-(1-methyl-1H-pyrazol-4-yl)-6-[1-(methylsulfonyl)-1,2,3,6-tetrahydropyridin-4-yl]-7H-pyrrolo[2,3-d]pyrimidine], the IC50 (CDK9/Cyclin T1) is reported as 2400 nM.

With `CS(=O)(=O)N1CC=C(c2cc3c(-c4ccccc4OC(F)(F)F)ncnc3[nH]2)CC1` [Example 58, 6-[1-(methylsulfonyl)-1,2,3,6-tetrahydropyridin-4-yl]-4-[2-(trifluoromethoxy)phenyl]-7H-pyrrolo[2,3-d]pyrimidine] the IC50 (CDK9/Cyclin T1) was > 12500 nM.

`COc1ccncc1-c1ncnc2[nH]c(C3=CCN(S(C)(=O)=O)CC3)cc12` [Example 59, 4-(4-methoxypyridin-3-yl)-6-[1-(methylsulfonyl)-1,2,3,6-tetrahydropyridin-4-yl]-7H-pyrrolo[2,3-d]pyrimidine] showed an IC50 (CDK9/Cyclin T1) of 910 nM.

Molecule `CS(=O)(=O)N1CC=C(c2cc3c(N4CCOCC4)ncnc3[nH]2)CC1` [Example 60, 6-[1-(methylsulfonyl)-1,2,3,6-tetrahydropyridin-4-yl]-4-(morpholin-4-yl)-7H-pyrrolo[2,3-d]pyrimidine] has an IC50 (CDK9/Cyclin T1) of 4000 nM.

Work on `CS(=O)(=O)N1CC=C(c2cc3c(N4CCCC4)ncnc3[nH]2)CC1` [Example 62, 6-[1-(methylsulfonyl)-1,2,3,6-tetrahydropyridin-4-yl]-4-(pyrrolidin-1-yl)-7H-pyrrolo[2,3-d]pyrimidine] yielded an IC50 (CDK9/Cyclin T1) of 5000 nM.

Molecule `CS(=O)(=O)N1CC=C(c2cc3c(N4CCC(F)(F)CC4)ncnc3[nH]2)CC1` [Example 63, 4-(4,4-difluoropiperidin-1-yl)-6-[1-(methylsulfonyl)-1,2,3,6-tetrahydropyridin-4-yl]-7H-pyrrolo[2,3-d]pyrimidine] has an IC50 (CDK9/Cyclin T1) of 1300 nM.

With `CS(=O)(=O)N1CC=C(c2cc3c(N4CC(F)(F)C4)ncnc3[nH]2)CC1` [Example 64, 4-(3,3-difluoroazetidin-1-yl)-6-[1-(methylsulfonyl)-1,2,3,6-tetrahydropyridin-4-yl]-7H-pyrrolo[2,3-d]pyrimidine] the IC50 (CDK9/Cyclin T1) was 2000 nM.

In the case of `CCOc1ccc(F)cc1-c1ncnc2[nH]c(C3=CCN(C(=O)OC(C)(C)C)CC3)cc12` [Example 66, tert-butyl 4-[4-(2-ethoxy-5-fluorophenyl)-7H-pyrrolo[2,3-d]pyrimidin-6-yl]-3,6-dihydropyridine-1(2H)-carboxylate], the IC50 (CDK9/Cyclin T1) is reported as 1500 nM.

For `CCOc1ccc(F)cc1-c1ncnc2[nH]c(C3=CCNCC3)cc12` [Example 67, 4-(2-ethoxy-5-fluorophenyl)-6-(1,2,3,6-tetrahydropyridin-4-yl)-7H-pyrrolo[2,3-d]pyrimidine], the IC50 (CDK9/Cyclin T1) was 300 nM.

With `COc1ccc(F)cc1-c1ncnc2[nH]c(C3=CCN(Cc4ccc(NC(=O)OC(C)(C)C)cc4)CC3)cc12` [Example 69, tert-butyl [4-({4-[4-(5-fluoro-2-methoxyphenyl)-7H-pyrrolo[2,3-d]pyrimidin-6-yl]-3,6-dihydropyridin-1(2H)-yl}methyl)phenyl]carbamate] the IC50 (CDK9/Cyclin T1) was 450 nM.
